Tests used:
[1] = for viscosity / mass density: 100 kPa, Liquid; for mass density: Vibrating tube method; for surface tension liquid-gas: Drop volume
[2] = refractive index (Na D-line) (dimensionless); conditions: 101.33 kPa, Liquid, Standard Abbe refractometry
[3] = refractive index (Na D-line) (dimensionless); xn = mol fraction of the nth substance listed; conditions: 100 kPa, Liquid, Standard Abbe refractometry
[4] = xn = mol fraction of the nth substance listed; conditions: for mass density / viscosity: 100 kPa, Liquid; for mass density: Vibrating tube method; for surface tension liquid-gas: Drop volume

CC12CC3CC(C)(C1)CC(C)(C3)C2 [1,3,5-trimethyladamantane]
Conditions | mass density, [1] [kg/m3] | refractive index, [2] | surface tension liquid-gas, [1] [mN/m] | viscosity, [1] [mPa·s]
293.15 K | 887.48 | 1.4736 | – | 2.601
298.15 K | 883.99 | 1.4715 | 26.17 | 2.338
303.15 K | 880.47 | 1.4695 | – | 2.118
308.15 K | 876.94 | – | – | 1.93
313.15 K | 873.4 | 1.4649 | – | 1.765
318.15 K | 869.86 | – | – | 1.621
323.15 K | 866.31 | 1.4612 | – | 1.494
328.15 K | 862.76 | – | – | 1.384
333.15 K | 859.2 | 1.4568 | – | 1.284

CCC12CC3CC(CC(C3)C1)C2 [1-ethyladamantane]
Conditions | mass density, [1] [kg/m3] | refractive index, [2] | surface tension liquid-gas, [1] [mN/m] | viscosity, [1] [mPa·s]
293.15 K | 937.11 | 1.4927 | – | 6.371
298.15 K | 933.58 | 1.4906 | 29.87 | 5.565
303.15 K | 929.99 | 1.4884 | – | 4.903
308.15 K | 926.4 | – | – | 4.348
313.15 K | 922.81 | 1.4839 | – | 3.878
318.15 K | 919.21 | – | – | 3.478
323.15 K | 915.62 | 1.4802 | – | 3.134
328.15 K | 912.01 | – | – | 2.838
333.15 K | 908.41 | 1.4759 | – | 2.581

OCC1CCCCC1 [cyclohexylmethanol] + CCC12CC3CC(CC(C3)C1)C2
x1 = 1
Conditions | mass density, [4] [kg/m3] | refractive index, [3] | surface tension liquid-gas, [4] [mN/m] | viscosity, [4] [mPa·s]
293.15 K | 929.76 | 1.4629 | – | 37.75
298.15 K | 926.25 | 1.4612 | 32.43 | 28.67
303.15 K | 922.71 | 1.4592 | – | 22.34
308.15 K | 919.14 | – | – | 17.57
313.15 K | 915.53 | 1.455 | – | 14.09
318.15 K | 911.88 | – | – | 11.43
323.15 K | 908.19 | 1.4507 | – | 9.354
328.15 K | 904.45 | – | – | 7.766
333.15 K | 900.67 | 1.4463 | – | 6.462

OCC1CCCCC1 [cyclohexylmethanol]
Conditions | mass density, [1] [kg/m3] | refractive index, [2] | surface tension liquid-gas, [1] [mN/m] | viscosity, [1] [mPa·s]
293.15 K | 929.76 | 1.4629 | – | 37.75
298.15 K | 926.25 | 1.4612 | 32.43 | 28.67
303.15 K | 922.71 | 1.4592 | – | 22.34
308.15 K | 919.14 | – | – | 17.57
313.15 K | 915.53 | 1.455 | – | 14.09
318.15 K | 911.88 | – | – | 11.43
323.15 K | 908.19 | 1.4507 | – | 9.354
328.15 K | 904.45 | – | – | 7.766
333.15 K | 900.67 | 1.4463 | – | 6.462

CCCCCCCO [heptan-1-ol] + CC12CC3CC(C)(C1)CC(C)(C3)C2
x1 = 1
Conditions | mass density, [4] [kg/m3] | refractive index, [3] | surface tension liquid-gas, [4] [mN/m] | viscosity, [4] [mPa·s]
293.15 K | 822.28 | 1.4236 | – | 6.887
298.15 K | 818.79 | 1.422 | 26.23 | 5.812
303.15 K | 815.28 | 1.4203 | – | 4.95
308.15 K | 811.74 | – | – | 4.245
313.15 K | 808.16 | 1.4156 | – | 3.654
318.15 K | 804.56 | – | – | 3.17
323.15 K | 800.92 | 1.4115 | – | 2.768
328.15 K | 797.24 | – | – | 2.428
333.15 K | 793.52 | 1.4077 | – | 2.141

CCCCCCCO [heptan-1-ol]
Conditions | mass density, [1] [kg/m3] | refractive index, [2] | surface tension liquid-gas, [1] [mN/m] | viscosity, [1] [mPa·s]
293.15 K | 822.28 | 1.4236 | – | 6.887
298.15 K | 818.79 | 1.422 | 26.23 | 5.812
303.15 K | 815.28 | 1.4203 | – | 4.95
308.15 K | 811.74 | – | – | 4.245
313.15 K | 808.16 | 1.4156 | – | 3.654
318.15 K | 804.56 | – | – | 3.17
323.15 K | 800.92 | 1.4115 | – | 2.768
328.15 K | 797.24 | – | – | 2.428
333.15 K | 793.52 | 1.4077 | – | 2.141

OCC1CCCCC1 [cyclohexylmethanol] + CC12CC3CC(C)(C1)CC(C)(C3)C2
x1 = 1
Conditions | mass density, [4] [kg/m3] | refractive index, [3] | surface tension liquid-gas, [4] [mN/m] | viscosity, [4] [mPa·s]
293.15 K | 929.76 | 1.4629 | – | 37.75
298.15 K | 926.25 | 1.4612 | 32.43 | 28.67
303.15 K | 922.71 | 1.4592 | – | 22.34
308.15 K | 919.14 | – | – | 17.57
313.15 K | 915.53 | 1.455 | – | 14.09
318.15 K | 911.88 | – | – | 11.43
323.15 K | 908.19 | 1.4507 | – | 9.354
328.15 K | 904.45 | – | – | 7.766
333.15 K | 900.67 | 1.4463 | – | 6.462

CCCCCCCO [heptan-1-ol] + CC12CC3CC(C1)CC(C)(C3)C2
x1 = 1
Conditions | mass density, [4] [kg/m3] | refractive index, [3] | surface tension liquid-gas, [4] [mN/m] | viscosity, [4] [mPa·s]
293.15 K | 822.28 | 1.4236 | – | 6.887
298.15 K | 818.79 | 1.422 | 26.23 | 5.812
303.15 K | 815.28 | 1.4203 | – | 4.95
308.15 K | 811.74 | – | – | 4.245
313.15 K | 808.16 | 1.4156 | – | 3.654
318.15 K | 804.56 | – | – | 3.17
323.15 K | 800.92 | 1.4115 | – | 2.768
328.15 K | 797.24 | – | – | 2.428
333.15 K | 793.52 | 1.4077 | – | 2.141

CC12CC3CC(C1)CC(C)(C3)C2 [1,3-dimethyladamantane]
Conditions | mass density, [1] [kg/m3] | refractive index, [2] | surface tension liquid-gas, [1] [mN/m] | viscosity, [1] [mPa·s]
293.15 K | 901.58 | 1.4776 | – | 3.764
298.15 K | 898.04 | 1.4757 | 27.88 | 3.345
303.15 K | 894.48 | 1.4734 | – | 3.004
308.15 K | 890.92 | – | – | 2.711
313.15 K | 887.35 | 1.4691 | – | 2.458
318.15 K | 883.77 | – | – | 2.237
323.15 K | 880.19 | 1.4651 | – | 2.045
328.15 K | 876.6 | – | – | 1.876
333.15 K | 873.01 | 1.461 | – | 1.728

CC12CC3CC(C1)CC(C)(C3)C2 [1,3-dimethyladamantane] + OCC1CCCCC1
x2 = 0
Conditions | mass density, [4] [kg/m3] | refractive index, [3] | surface tension liquid-gas, [4] [mN/m] | viscosity, [4] [mPa·s]
293.15 K | 901.58 | 1.4776 | – | 3.764
298.15 K | 898.04 | 1.4757 | 27.88 | 3.345
303.15 K | 894.48 | 1.4734 | – | 3.004
308.15 K | 890.92 | – | – | 2.711
313.15 K | 887.35 | 1.4691 | – | 2.458
318.15 K | 883.77 | – | – | 2.237
323.15 K | 880.19 | 1.4651 | – | 2.045
328.15 K | 876.6 | – | – | 1.876
333.15 K | 873.01 | 1.461 | – | 1.728

CCCCCCCO [heptan-1-ol] + CCC12CC3CC(CC(C3)C1)C2
x1 = 1
Conditions | mass density, [4] [kg/m3] | refractive index, [3] | surface tension liquid-gas, [4] [mN/m] | viscosity, [4] [mPa·s]
293.15 K | 822.28 | 1.4236 | – | 6.887
298.15 K | 818.79 | 1.422 | 26.23 | 5.812
303.15 K | 815.28 | 1.4203 | – | 4.95
308.15 K | 811.74 | – | – | 4.245
313.15 K | 808.16 | 1.4156 | – | 3.654
318.15 K | 804.56 | – | – | 3.17
323.15 K | 800.92 | 1.4115 | – | 2.768
328.15 K | 797.24 | – | – | 2.428
333.15 K | 793.52 | 1.4077 | – | 2.141
